Laboratory results published in patent publication US20240218022A1, “ANTI-VISTA MACROCYCLIC PEPTIDES AND COMPOSITIONS” (BRISTOL-MYERS SQUIBB COMPANY, priority 2022, published 2024).
pIC50: −log10 of the molar value. Starred links: 1 amine or outer side, 2 acyl side, 3 side chain; linkers in the order of their positions; H or OH if unused. Positions of bridges follow the written chain, without caps; N, C: chain ends. Non-standard residues stand in square brackets, D forms with d. Residues, ends and D or L forms follow the SMILES beside them. Phe(3-Me) = Cc1cccc(C[C@H](N)C(=O)O)c1; γGlu = O=C(O)[C@H](CCC(=O)[*:2])N[*:1]; 2Nal = N[C@@H](Cc1ccc2ccccc2c1)C(=O)O; βAsp = O=C(O)[C@H](CC(=O)[*:2])N[*:1]; Cit = NC(=O)NCCC[C@H](N)C(=O)O; Ahp(2) = CCCCC[C@H](N)C(=O)O; NMeNle = CCCC[C@H](NC)C(=O)O; NHexGly = CCCCCCNCC(=O)O; Nle = CCCC[C@H](N)C(=O)O; Aun = NCCCCCCCCCCC(=O)O; AEEA = NCCOCCOCC(=O)O

molecular target: T1, mouse VISTA (mVISTA) (Mus musculus, UniProt Q9D659); assay: Cell-Based Binding High-Content Assay For mVISTA (HC CBA mVISTA); settings: cell-based binding high-content assay, mVISTA; read-out: HC CBA miPr ISTA IC50
T1 construct: expressed in transfected cells; host or cells: Human embryonic kidney 293T cells
T1 sequence (Q9D659 33-308): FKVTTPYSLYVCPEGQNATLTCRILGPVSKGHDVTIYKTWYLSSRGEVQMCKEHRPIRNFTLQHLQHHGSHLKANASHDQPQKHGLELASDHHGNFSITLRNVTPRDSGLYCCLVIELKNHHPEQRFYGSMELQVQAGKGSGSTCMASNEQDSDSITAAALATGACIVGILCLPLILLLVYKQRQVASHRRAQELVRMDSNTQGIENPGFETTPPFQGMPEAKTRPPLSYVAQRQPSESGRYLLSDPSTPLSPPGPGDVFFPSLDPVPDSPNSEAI
Summary of the method: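 Read-out: Alexa 647–streptavidin signal imaged on fixed, Hoechst-stained mVISTA-293T cells, with IC50 taken from a four-parameter logistic curve. Compounds competed with 2 nM biotinylated peptide for 30 min at room temperature, tested under both no-wash and wash (1 h compound, media exchange, 1 h) formats.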

pIC50 | SMILES
7.70 | CCCCCCN1CC(=O)N[C@@H](Cc2ccc(O)cc2)C(=O)N[C@@H](CC(C)C)C(=O)N[C@@H](CC(N)=O)C(=O)N[C@@H](CCCNC(=N)N)C(=O)N[C@@H](CC(C)C)C(=O)N[C@@H](CCCCC)C(=O)N2CCC[C@H]2C(=O)N[C@@H](C(C)C)C(=O)N[C@@H](CO)C(=O)N[C@H](C(=O)NCC(=O)NCCOCCOCC(=O)N[C@@H](CC(=O)O)C(=O)NCCOCCOCC(=O)NCCCCCCCCCCC(=O)O)CSCC(=O)N[C@@H](Cc2ccccc2)C(=O)N[C@@H](Cc2ccc(O)cc2)C(=O)N[C@@H](CC(=O)O)C1=O [compound 2001] ({CH2CO}-FYD[NHexGly]YLNRL[Ahp(2)]PVSCG[AEEA]D[AEEA][Aun]-OH; thioether N-14)
7.71 | CCCCCCN1CC(=O)N[C@@H](Cc2ccc(O)cc2)C(=O)N[C@@H](CC(C)C)C(=O)N[C@@H](CC(N)=O)C(=O)N[C@@H](CCCNC(=N)N)C(=O)N[C@@H](CC(C)C)C(=O)N[C@@H](CCCCC)C(=O)N2CCC[C@H]2C(=O)N[C@@H](C(C)C)C(=O)N[C@@H](CO)C(=O)N[C@H](C(=O)N[C@@H](CCC(=O)NCCOCCOCC(=O)N[C@@H](CC(=O)O)C(=O)NCCOCCOCC(=O)NCCCCCCCCCCC(=O)O)C(=O)O)CSCC(=O)N[C@@H](Cc2ccccc2)C(=O)N[C@@H](Cc2ccc(O)cc2)C(=O)N[C@@H](CC(=O)O)C1=O [compound 2002] ({CH2CO}-FYD[NHexGly]YLNRL[Ahp(2)]PVSC[γGlu][AEEA]D[AEEA][Aun]-OH; thioether N-14)
7.42 | CCCCCCN1CC(=O)N[C@@H](Cc2ccc(O)cc2)C(=O)N[C@@H](CC(C)C)C(=O)N[C@@H](CC(N)=O)C(=O)N[C@@H](CCCNC(=N)N)C(=O)N[C@@H](CC(C)C)C(=O)N[C@@H](CCCCC)C(=O)N2CCC[C@H]2C(=O)N[C@@H](C(C)C)C(=O)N[C@@H](CO)C(=O)N[C@H](C(=O)N[C@@H](CC(=O)NCCOCCOCC(=O)N[C@@H](CC(=O)O)C(=O)NCCOCCOCC(=O)NCCCCCCCCCCC(=O)O)C(=O)O)CSCC(=O)N[C@@H](Cc2ccccc2)C(=O)N[C@@H](Cc2ccc(O)cc2)C(=O)N[C@@H](CC(=O)O)C1=O [compound 2003] ({CH2CO}-FYD[NHexGly]YLNRL[Ahp(2)]PVSC[βAsp][AEEA]D[AEEA][Aun]-OH; thioether N-14)
7.31 | CCCCCCN1CC(=O)N[C@@H](Cc2ccc(O)cc2)C(=O)N[C@@H](CC(C)C)C(=O)N[C@@H](CC(N)=O)C(=O)N[C@@H](CCCNC(=N)N)C(=O)N[C@@H](CC(C)C)C(=O)N[C@@H](CCCCC)C(=O)N2CCC[C@H]2C(=O)N[C@@H](C(C)C)C(=O)N[C@@H](CO)C(=O)N[C@H](C(=O)N[C@@H](CC(=O)O)C(=O)NCCOCCOCC(=O)N[C@@H](CC(=O)O)C(=O)NCCOCCOCC(=O)NCCCCCCCCCCC(=O)O)CSCC(=O)N[C@@H](Cc2ccccc2)C(=O)N[C@@H](Cc2ccc(O)cc2)C(=O)N[C@@H](CC(=O)O)C1=O [compound 2004] ({CH2CO}-FYD[NHexGly]YLNRL[Ahp(2)]PVSCD[AEEA]D[AEEA][Aun]-OH; thioether N-14)
7.98 | CCCCCCN1CC(=O)N[C@@H](Cc2ccc(O)cc2)C(=O)N[C@@H](CCCC)C(=O)N[C@@H](CC(=O)O)C(=O)N[C@@H](CCCNC(=N)N)C(=O)N[C@@H](CC(C)C)C(=O)N[C@@H](CCCCC)C(=O)N2CCC[C@H]2C(=O)N[C@@H](C(C)C)C(=O)N[C@@H](CC(N)=O)C(=O)N[C@H](C(=O)NCC(=O)NCCOCCOCC(=O)N[C@@H](CC(=O)O)C(=O)NCCOCCOCC(=O)NCCCCCCCCCCC(=O)O)CSCC(=O)N[C@@H](Cc2ccccc2)C(=O)N[C@@H](Cc2ccc(O)cc2)C(=O)N[C@@H](CC(=O)O)C1=O [compound 2005] ({CH2CO}-FYD[NHexGly]Y[Nle]DRL[Ahp(2)]PVNCG[AEEA]D[AEEA][Aun]-OH; thioether N-14)
7.71 | CCCCCCN1CC(=O)N[C@@H](Cc2ccc(O)cc2)C(=O)N[C@@H](CCCC)C(=O)N[C@@H](CC(N)=O)C(=O)N[C@@H](CCCNC(=N)N)C(=O)N[C@@H](CC(C)C)C(=O)N[C@@H](CCCCC)C(=O)N2CCC[C@H]2C(=O)N[C@@H](C(C)C)C(=O)N[C@@H](CO)C(=O)N[C@H](C(=O)NCC(=O)NCCOCCOCC(=O)N[C@@H](CC(=O)O)C(=O)NCCOCCOCC(=O)NCCCCCCCCCCC(=O)O)CSCC(=O)N[C@@H](Cc2ccc3ccccc3c2)C(=O)N[C@@H](Cc2ccc(O)cc2)C(=O)N[C@@H](CC(=O)O)C1=O [compound 2007] ({CH2CO}-[2Nal]YD[NHexGly]Y[Nle]NRL[Ahp(2)]PVSCG[AEEA]D[AEEA][Aun]-OH; thioether N-14)
7.79 | CCCCCCN1CC(=O)N[C@@H](Cc2ccc(O)cc2)C(=O)N[C@@H](CCCC)C(=O)N[C@@H](CC(N)=O)C(=O)N[C@@H](CCCNC(=N)N)C(=O)N[C@@H](CC(C)C)C(=O)N[C@@H](CCCCC)C(=O)N2CCC[C@H]2C(=O)N[C@@H](C(C)C)C(=O)N[C@@H](CC(=O)O)C(=O)N[C@H](C(=O)NCC(=O)NCCOCCOCC(=O)N[C@@H](CC(=O)O)C(=O)NCCOCCOCC(=O)NCCCCCCCCCCC(=O)O)CSCC(=O)N[C@@H](Cc2cccc(C)c2)C(=O)N[C@@H](Cc2c[nH]c3ccccc23)C(=O)N[C@@H](CC(=O)O)C1=O [compound 2008] ({CH2CO}-[Phe(3-Me)]WD[NHexGly]Y[Nle]NRL[Ahp(2)]PVDCG[AEEA]D[AEEA][Aun]-OH; thioether N-14)
7.41 | CCCCCCN1CC(=O)N[C@@H](Cc2ccc(O)cc2)C(=O)N[C@@H](CC(C)C)C(=O)N[C@@H](CC(N)=O)C(=O)N[C@@H](CCCNC(=N)N)C(=O)N[C@@H](CC(C)C)C(=O)N[C@@H](CCCCC)C(=O)N2CCC[C@H]2C(=O)N[C@@H](C(C)C)C(=O)N[C@@H](C(C)C)C(=O)N[C@H](C(=O)NCC(=O)NCCOCCOCC(=O)N[C@@H](CC(=O)O)C(=O)NCCOCCOCC(=O)NCCCCCCCCCCC(=O)O)CSCC(=O)N[C@@H](Cc2ccccc2)C(=O)N[C@@H](Cc2cccc(C)c2)C(=O)N[C@@H](CC(=O)O)C1=O [compound 2009] ({CH2CO}-F[Phe(3-Me)]D[NHexGly]YLNRL[Ahp(2)]PVVCG[AEEA]D[AEEA][Aun]-OH; thioether N-14)
7.80 | CCCCCCN1CC(=O)N[C@@H](Cc2ccc(O)cc2)C(=O)N[C@@H](CCCC)C(=O)N[C@@H](CC(N)=O)C(=O)N[C@@H](CCCNC(=N)N)C(=O)N(C)[C@@H](CCCC)C(=O)N[C@@H](CCCCC)C(=O)N2CCC[C@H]2C(=O)N[C@@H](C(C)C)C(=O)N[C@@H](CC(=O)O)C(=O)N[C@H](C(=O)NCC(=O)NCCOCCOCC(=O)N[C@@H](CC(=O)O)C(=O)NCCOCCOCC(=O)NCCCCCCCCCCC(=O)O)CSCC(=O)N[C@@H](Cc2ccccc2)C(=O)N[C@@H](Cc2c[nH]c3ccccc23)C(=O)N[C@@H](CC(=O)O)C1=O [compound 2010] ({CH2CO}-FWD[NHexGly]Y[Nle]NR[NMeNle][Ahp(2)]PVDCG[AEEA]D[AEEA][Aun]-OH; thioether N-14)
7.29 | CCCCCCN1CC(=O)N[C@@H](Cc2ccc(O)cc2)C(=O)N[C@@H](CC(C)C)C(=O)N[C@@H](CC(N)=O)C(=O)N[C@@H](CCCNC(=N)N)C(=O)N[C@@H](CC(C)C)C(=O)N[C@@H](CCCCC)C(=O)N2CCC[C@H]2C(=O)N[C@@H](C(C)C)C(=O)N[C@@H](C(C)C)C(=O)N[C@H](C(=O)NCC(=O)NCCOCCOCC(=O)N[C@@H](CC(=O)O)C(=O)NCCOCCOCC(=O)NCCCCCCCCCCC(=O)O)CSCC(=O)N[C@@H](Cc2ccccc2)C(=O)N[C@@H](Cc2ccc(O)cc2)C(=O)N[C@@H](CC(=O)O)C1=O [compound 2012] ({CH2CO}-FYD[NHexGly]YLNRL[Ahp(2)]PVVCG[AEEA]D[AEEA][Aun]-OH; thioether N-14)
7.59 | CCCCCCN1CC(=O)N[C@@H](Cc2ccc(O)cc2)C(=O)N[C@@H](CCCCC)C(=O)NCC(=O)N[C@@H](CCCNC(=N)N)C(=O)N[C@@H](CC(C)C)C(=O)N[C@@H](CCCCC)C(=O)N2CCC[C@H]2C(=O)N[C@@H](C(C)C)C(=O)N[C@@H](CO)C(=O)N[C@H](C(=O)NCC(=O)NCCOCCOCC(=O)N[C@@H](CC(=O)O)C(=O)NCCOCCOCC(=O)NCCCCCCCCCCC(=O)O)CSCC(=O)N[C@@H](Cc2ccccc2)C(=O)N[C@@H](Cc2ccc(O)cc2)C(=O)N[C@@H](CC(=O)O)C1=O [compound 2013] ({CH2CO}-FYD[NHexGly]Y[Ahp(2)]GRL[Ahp(2)]PVSCG[AEEA]D[AEEA][Aun]-OH; thioether N-14)
7.79 | CCCCCCN1CC(=O)N[C@@H](Cc2ccc(O)cc2)C(=O)N[C@@H](CCCC)C(=O)NCC(=O)N[C@@H](CCCNC(=N)N)C(=O)N[C@@H](CC(C)C)C(=O)N[C@@H](CCCCC)C(=O)N2CCC[C@H]2C(=O)N[C@@H](C(C)C)C(=O)N[C@@H](CC(=O)O)C(=O)N[C@H](C(=O)NCC(=O)NCCOCCOCC(=O)N[C@@H](CC(=O)O)C(=O)NCCOCCOCC(=O)NCCCCCCCCCCC(=O)O)CSCC(=O)N[C@@H](Cc2cccc(C)c2)C(=O)N[C@@H](Cc2ccc(O)cc2)C(=O)N[C@@H](CC(=O)O)C1=O [compound 2014] ({CH2CO}-[Phe(3-Me)]YD[NHexGly]Y[Nle]GRL[Ahp(2)]PVDCG[AEEA]D[AEEA][Aun]-OH; thioether N-14)
7.72 | CCCCCCN1CC(=O)N[C@@H](Cc2ccc(O)cc2)C(=O)N[C@@H](CCCC)C(=O)N[C@@H](CC(N)=O)C(=O)N[C@@H](CCCNC(N)=O)C(=O)N[C@@H](CC(C)C)C(=O)N[C@@H](CCCCC)C(=O)N2CCC[C@H]2C(=O)N[C@@H](C(C)C)C(=O)N[C@@H](CO)C(=O)N[C@H](C(=O)NCC(=O)NCCOCCOCC(=O)N[C@@H](CC(=O)O)C(=O)NCCOCCOCC(=O)NCCCCCCCCCCC(=O)O)CSCC(=O)N[C@@H](Cc2ccc3ccccc3c2)C(=O)N[C@@H](Cc2ccc(O)cc2)C(=O)N[C@@H](CC(=O)O)C1=O [compound 2016] ({CH2CO}-[2Nal]YD[NHexGly]Y[Nle]N[Cit]L[Ahp(2)]PVSCG[AEEA]D[AEEA][Aun]-OH; thioether N-14)
